According to US11780826B2 (Amgen Inc., priority 2017, dated 2023):

Tested on: Bovine cardiac myofibrils
Experiment: In vitro model of dose-dependent myofibril ATPase modulation (AC1.4, pyruvate kinase/lactate dehydrogenase-coupled ATPase assay at pCa25)
Format: biochemical
Details: concentration at which ATPase activity was 1.4-fold higher than the bottom of the dose curve, mean of a minimum of two independent tests
Procedure, shortened: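 Bovine cardiac myofibrils, detergent-treated; 0.25-1.0 mg/ml. Buffer: K-PIPES 12 mM, MgCl2 2 mM, DTT 1 mM, BSA 0.1 mg/ml, pH 6.80, 22° C; Ca2+ set by EGTA/CaCl2. ATP 1 mM, NADH/PEP-coupled, A340. 4-parameter fit; n≥2.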

AC1.4 [µM]	SMILES
2.3075	CC(C)(C(N)=O)c1cccc(C(=O)N2[C@@H](C(=O)N[C@@H](c3ccc(C(F)(F)F)cc3F)C3COC3)C[C@H]3C[C@H]32)c1 [Example 497, (1R,3R,5R)-2-(3-(1-amino-2-methyl-1-oxopropan-2-yl)benzoyl)-N—((R)-(2-fluoro-4-(trifluoromethyl)phenyl)(oxetan-3-yl)methyl)-2-azabicyclo[3.1.0]hexane-3-carboxamide]
0.1452	N#CC1CN(S(=O)(=O)c2cccc(C(=O)N3CCCCCC3C(=O)NCc3ccc(C(F)(F)F)cc3)c2)C1 (centres unmarked) [Example 96, (2)-1-((3-((3-cyano-1-azetidinyl)sulfonyl)phenyl)carbonyl)-N-(4-(trifluoromethyl)benzyl)-2-azepanecarboxamide]
3.6775	Cc1cc(C(=O)N2[C@@H](C(=O)N[C@@H](c3cc(F)c(Cl)cc3F)C3COC3)C[C@H]3C[C@H]32)cc(C)n1 [Example 603, (1R,3R,5R)-N-((R)-(4-chloro-2,5-difluorophenyl)(3-oxetanyl)methyl)-2-((2,6-dimethyl-4-pyridinyl)carbonyl)-2-azabicyclo[3.1.0]hexane-3-carboxamide]
2.7885	C[C@@H](NC(=O)[C@H]1CCCN1C(=O)[C@H]1CCCN(S(=O)(=O)N2CC(C#N)C2)C1)c1ccc(C#N)cc1 [Example 540, 1-(((3S)-1-((3-cyano-1-azetidinyl)sulfonyl)-3-piperidinyl)carbonyl)-N-((1R)-1-(4-cyanophenyl)ethyl)-D-prolinamide]
0.4078	O=C(NCc1ccc(C(F)(F)F)cc1F)[C@H]1CCCN1C(=O)[C@H]1CCCN(S(=O)(=O)N2CC(O)(C3CC3)C2)C1 [Example 199, 1-(((3S)-1-((3-cyclopropyl-3-hydroxy-1-azetidinyl)sulfonyl)-3-piperidinyl)carbonyl)-N-(2-fluoro-4-(trifluoromethyl)benzyl)-D-prolinamide]
0.02315	N#CC1CN(S(=O)(=O)c2cccc(C(=O)N3CC4(CC4)C[C@@H]3C(=O)NCc3ccc(C(F)(F)F)cc3)c2)C1 [Example 15, (6R)-5-((3-((3-cyano-1-azetidinyl)sulfonyl)phenyl)carbonyl)-N-(4-(trifluoromethyl)benzyl)-5-azaspiro[2.4]heptane-6-carboxamide]
8.033	N#CC1CN(S(=O)(=O)N2CCC[C@H](C(=O)N3CCC[C@@H]3C(=O)N[C@H](c3ccc(C(F)(F)F)cc3)C(F)(F)F)C2)C1 [Example 768, 1-(((3S)-1-((3-cyano-1-azetidinyl)sulfonyl)-3-piperidinyl)carbonyl)-N-((1R)-2,2,2-trifluoro-1-(4-(trifluoromethyl)phenyl)ethyl)-D-prolinamide]
4.59	CS(=O)(=O)c1cccc(C(=O)N2[C@@H](C(=O)N[C@@H](c3ccc(C(F)(F)F)cc3F)C3(F)COC3)C[C@H]3C[C@H]32)c1 [Example 676, (1R,3R,5R)-N-((S)-(3-fluoro-3-oxetanyl)(2-fluoro-4-(trifluoromethyl)phenyl)methyl)-2-(3-(methylsulfonyl)benzoyl)-2-azabicyclo[3.1.0]hexane-3-carboxamide]
2.5075	Cc1ccc(CNC(=O)[C@H]2CCCN2C(=O)c2cccc(S(=O)(=O)N3CC(C#N)C3)c2)nc1 [Example 520, 1-(3-((3-cyano-1-azetidinyl)sulfonyl)benzoyl)-N-((5-methyl-2-pyridinyl)methyl)-D-prolinamide]
7.5435	Nc1ccccc1C(=O)N1[C@@H](C(=O)N[C@@H](c2ccc(C(F)(F)F)cc2F)C2CC2)C[C@H]2C[C@H]21 [Example 755, (1R,3R,5R)-2-(2-aminobenzoyl)-N-((R)-cyclopropyl(2-fluoro-4-(trifluoromethyl)phenyl)methyl)-2-azabicyclo[3.1.0]hexane-3-carboxamide]
1.2296	N#CC1CN(S(=O)(=O)c2cccc(C(=O)N3CCC[C@@H]3C(=O)NCc3ncc(Cl)s3)c2)C1 [Example 376, N-((5-chloro-1,3-thiazol-2-yl)methyl)-1-((3-((3-cyano-1-azetidinyl)sulfonyl)phenyl)carbonyl)-D-prolinamide]
0.8976	C[C@H](NC(=O)[C@@H](C)N(C)C(=O)c1cccc(S(=O)(=O)N2CC(C#N)C2)c1)c1ccc(Cl)cc1 [Example 331, N-((1R)-2-(((1S)-1-(4-chlorophenyl)ethyl)amino)-1-methyl-2-oxoethyl)-3-((3-cyano-1-azetidinyl)sulfonyl)-N-methylbenzamide]
0.03455	N#CC1CN(S(=O)(=O)N2CCC[C@H](C(=O)N3[C@@H](C(=O)NCc4ccc(C(F)(F)F)cc4F)C[C@H]4C[C@H]43)C2)C1 [Example 33, (1R,3R,5R)-2-(((3S)-1-((3-cyano-1-azetidinyl)sulfonyl)-3-piperidinyl)carbonyl)-N-(2-fluoro-4-(trifluoromethyl)benzyl)-2-azabicyclo[3.1.0]hexane-3-carboxamide]
2.274	C[C@@H](NC(=O)[C@H]1C[C@H](F)CN1C(=O)[C@H]1CCCN(S(=O)(=O)N2CC(C#N)C2)C1)c1cccc(C(F)(F)F)c1 [Example 494, (2R,4S)-1-((S)-1-((3-cyanoazetidin-1-yl)sulfonyl)piperidine-3-carbonyl)-4-fluoro-N-((R)-1-(3-(trifluoromethyl)phenyl)ethyl)pyrrolidine-2-carboxamide]
1.216	O=C(NCc1ccc(C(F)(F)F)cc1)[C@H]1CCCN1C(=O)[C@H]1CCCN(S(=O)(=O)N2CC(O)(c3ccccc3)C2)C1 [Example 371, 1-(((3S)-1-((3-hydroxy-3-phenyl-1-azetidinyl)sulfonyl)-3-piperidinyl)carbonyl)-N-(4-(trifluoromethyl)benzyl)-D-prolinamide]
0.1502	N#CC1CN(S(=O)(=O)c2cccc(C(=O)N3CCC[C@@H]3C(=O)NCc3cc(F)cc(F)c3F)c2)C1 [Example 100, 1-(3-((3-cyano-1-azetidinyl)sulfonyl)benzoyl)-N-(2,3,5-trifluorobenzyl)-D-prolinamide]
0.8057	O=C(O)CS(=O)(=O)c1cccc(C(=O)N2[C@@H](C(=O)N[C@@H](c3cc(F)c(C(F)(F)F)cc3F)C3CC3)C[C@H]3C[C@H]32)c1 [Example 306, ((3-(((1R,3R,5R)-3-(((R)-cyclopropyl(2,5-difluoro-4-(trifluoromethyl)phenyl)methyl)carbamoyl)-2-azabicyclo[3.1.0]hexan-2-yl)carbonyl)phenyl)sulfonyl)acetic acid]
2.346	O=C(N[C@@H](c1cc(F)c(Cl)cc1F)C1COC1)[C@H]1C[C@H]2C[C@H]2N1C(=O)c1ccnc(C(F)(F)F)n1 [Example 500, (1R,3R,5R)-N-((R)-(4-chloro-2,5-difluorophenyl)(3-oxetanyl)methyl)-2-((2-(trifluoromethyl)-4-pyrimidinyl)carbonyl)-2-azabicyclo[3.1.0]hexane-3-carboxamide]
4.2755	Cc1ccc(F)c(CNC(=O)[C@H]2CCCN2C(=O)[C@H]2CCCN(S(=O)(=O)N3CC(C#N)C3)C2)c1 [Example 642, 1-(((3S)-1-((3-cyano-1-azetidinyl)sulfonyl)-3-piperidinyl)carbonyl)-N-(2-fluoro-5-methylbenzyl)-D-prolinamide]
4.1855	CN1CCN(S(=O)(=O)N2CC(C#N)C2)CC1C(=O)N1CCC[C@@H]1C(=O)NCc1ccc(C(F)(F)F)cc1 (stereo partly drawn) [Example 639, (2R)-1-(4-((3-cyanoazetidin-1-yl)sulfonyl)-1-methylpiperazine-2-carbonyl)-N-(4-(trifluoromethyl)benzyl)pyrrolidine-2-carboxamide]
0.0171	C[C@@H](NC(=O)[C@H]1CC(F)(F)CN1C(=O)c1cccc(S(=O)(=O)N2CC(C#N)C2)c1)c1ccc(C(F)(F)F)cc1 [Example 6, 1-((3-((3-cyano-1-azetidinyl)sulfonyl)phenyl)carbonyl)-4,4-difluoro-N-((1R)-1-(4-(trifluoromethyl)phenyl)ethyl)-D-prolinamide]
0.3676	CS(=O)(=O)c1cccc(C(=O)N2[C@@H](C(=O)N[C@@H](c3ccc(C(F)(F)F)c(F)c3)C3COC3)C[C@H]3C[C@H]32)c1 [Example 193, (1R,3R,5R)-N-((R)-(3-fluoro-4-(trifluoromethyl)phenyl)(3-oxetanyl)methyl)-2-(3-(methylsulfonyl)benzoyl)-2-azabicyclo[3.1.0]hexane-3-carboxamide]
0.5793	CS(=O)(=O)c1cccc(C(=O)N2[C@@H](C(=O)NC(c3ccc(C(F)(F)F)cc3F)C3CNC(=O)C3)C[C@H]3C[C@H]32)c1 (stereo partly drawn) [Example 244, (1R,3R,5R)-N-((2-fluoro-4-(trifluoromethyl)phenyl)(5-oxopyrrolidin-3-yl)methyl)-2-(3-(methylsulfonyl)benzoyl)-2-azabicyclo[3.1.0]hexane-3-carboxamide]
2.446	N#CC1CN(S(=O)(=O)N2CCC[C@H](C(=O)N3CCC[C@@H]3C(=O)NCc3cccc(F)c3F)C2)C1 [Example 516, 1-(((3S)-1-((3-cyano-1-azetidinyl)sulfonyl)-3-piperidinyl)carbonyl)-N-(2,3-difluorobenzyl)-D-prolinamide]
0.2186	CCS(=O)(=O)c1ccnc(C(=O)N2[C@@H](C(=O)N[C@@H](c3cc(F)c(Cl)cc3F)C3CC3)C[C@H]3C[C@H]32)c1 [Example 133, (1R,3R,5R)-N-((R)-(4-chloro-2,5-difluorophenyl)(cyclopropyl)methyl)-2-((4-(ethylsulfonyl)-2-pyridinyl)carbonyl)-2-azabicyclo[3.1.0]hexane-3-carboxamide]
0.0383	N#CC1CN(S(=O)(=O)c2cccc(C(=O)N3CCC[C@@H]3C(=O)N[C@H](c3ccc(C(F)(F)F)cc3)C3CC3)c2)C1 [Example 37, 1-(3-((3-cyano-1-azetidinyl)sulfonyl)benzoyl)-N-((S)-cyclopropyl(4-(trifluoromethyl)phenyl)methyl)-D-prolinamide]
